We go through one compound from ChEMBL document CHEMBL4152374, “A new phenolic series of indenopyridinone as topoisomerase inhibitors: Design, synthesis, and structure-activity relationships” (Bioorg Med Chem, 2018).

The IC50 is the concentration that gives 50% inhibition. One may read the inhibition as the drop in the measured response relative to a control, in per cent.

One assay deals with HeLa. Description: Antiproliferative activity against human HeLa cells after 72 hrs by EZ-CYTOX reagent based assay. The assay is classed as functional, cell-based.
In assay [1] the target is T1, DNA topoisomerase 1 (Homo sapiens) (UniProt P11387).
T1 sequence (whole entry): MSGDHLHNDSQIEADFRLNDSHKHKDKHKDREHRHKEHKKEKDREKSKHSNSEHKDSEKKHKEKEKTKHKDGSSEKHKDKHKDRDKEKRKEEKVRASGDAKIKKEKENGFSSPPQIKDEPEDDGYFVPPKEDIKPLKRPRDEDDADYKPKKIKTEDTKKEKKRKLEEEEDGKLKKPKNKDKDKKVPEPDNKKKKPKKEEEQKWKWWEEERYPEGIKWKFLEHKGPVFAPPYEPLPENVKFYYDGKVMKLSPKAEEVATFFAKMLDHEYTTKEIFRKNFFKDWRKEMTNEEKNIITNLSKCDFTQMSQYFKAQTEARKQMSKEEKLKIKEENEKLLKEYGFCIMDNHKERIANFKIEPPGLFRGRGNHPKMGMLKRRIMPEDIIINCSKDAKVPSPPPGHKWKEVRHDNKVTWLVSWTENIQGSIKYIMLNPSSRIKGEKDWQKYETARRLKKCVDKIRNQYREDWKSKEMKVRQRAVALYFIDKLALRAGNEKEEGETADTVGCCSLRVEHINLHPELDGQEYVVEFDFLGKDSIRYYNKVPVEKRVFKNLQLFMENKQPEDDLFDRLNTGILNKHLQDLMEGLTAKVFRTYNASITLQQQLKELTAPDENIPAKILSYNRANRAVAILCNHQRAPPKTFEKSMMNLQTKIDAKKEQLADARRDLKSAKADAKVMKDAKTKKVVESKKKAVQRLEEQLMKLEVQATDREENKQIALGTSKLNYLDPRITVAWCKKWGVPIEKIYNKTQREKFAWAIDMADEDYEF
Description: Inhibition of human topoisomerase 1 using supercoiled pBR322 plasmid DNA as substrate at 20 uM after 30 mins by agarose gel electrophoresis method relative to control.

For assay [2], the target named is T1, DNA topoisomerase 1 (Homo sapiens). Description: Inhibition of human topoisomerase 1 using supercoiled pBR322 plasmid DNA as substrate at 100 uM after 30 mins by agarose gel electrophoresis method relative to control.
Another assay has as its system Calf thymus DNA. Put plainly: Inhibition of EtBr binding to calf thymus DNA up to 40 uM by fluorescence spectroscopy. The assay is classed as nucleic-acid assay. Particulars: Bos taurus.
The target of assay [3] is DNA topoisomerase 2-alpha (Homo sapiens) (UniProt P11388). Put plainly: Inhibition of human topoisomerase 2-alpha using supercoiled pBR322 plasmid DNA as substrate at 20 uM after 30 mins by agarose gel electrophoresis method relative to etoposide.
Assay [4] has the same target. Put plainly: Inhibition of human topoisomerase 2-alpha using supercoiled pBR322 plasmid DNA as substrate at 100 uM after 30 mins by agarose gel electrophoresis method relative to control.
The test system of a further assay is HCT-15. Put plainly: Antiproliferative activity against human HCT15 cells after 72 hrs by EZ-CYTOX reagent based assay. The class given is functional, cell-based. Particulars: HCT-15, 72 h.
The subject of another assay is T47D. Description: Antiproliferative activity against human T47D cells after 72 hrs by EZ-CYTOX reagent based assay. The class given is functional, cell-based.
Assay [5] concerns the target DNA topoisomerase 2-alpha (Homo sapiens) (UniProt P11388). Put plainly: Inhibition of human topoisomerase 2-alpha using supercoiled pBR322 plasmid DNA as substrate at 20 uM after 30 mins by agarose gel electrophoresis method relative to control.
Assay [6] shares this target. Put plainly: Inhibition of human topoisomerase 2-alpha using supercoiled pBR322 plasmid DNA as substrate at 100 uM after 30 mins by agarose gel electrophoresis method relative to etoposide.

Sequence of DNA topoisomerase 2-alpha (Homo sapiens) (P11388 whole entry): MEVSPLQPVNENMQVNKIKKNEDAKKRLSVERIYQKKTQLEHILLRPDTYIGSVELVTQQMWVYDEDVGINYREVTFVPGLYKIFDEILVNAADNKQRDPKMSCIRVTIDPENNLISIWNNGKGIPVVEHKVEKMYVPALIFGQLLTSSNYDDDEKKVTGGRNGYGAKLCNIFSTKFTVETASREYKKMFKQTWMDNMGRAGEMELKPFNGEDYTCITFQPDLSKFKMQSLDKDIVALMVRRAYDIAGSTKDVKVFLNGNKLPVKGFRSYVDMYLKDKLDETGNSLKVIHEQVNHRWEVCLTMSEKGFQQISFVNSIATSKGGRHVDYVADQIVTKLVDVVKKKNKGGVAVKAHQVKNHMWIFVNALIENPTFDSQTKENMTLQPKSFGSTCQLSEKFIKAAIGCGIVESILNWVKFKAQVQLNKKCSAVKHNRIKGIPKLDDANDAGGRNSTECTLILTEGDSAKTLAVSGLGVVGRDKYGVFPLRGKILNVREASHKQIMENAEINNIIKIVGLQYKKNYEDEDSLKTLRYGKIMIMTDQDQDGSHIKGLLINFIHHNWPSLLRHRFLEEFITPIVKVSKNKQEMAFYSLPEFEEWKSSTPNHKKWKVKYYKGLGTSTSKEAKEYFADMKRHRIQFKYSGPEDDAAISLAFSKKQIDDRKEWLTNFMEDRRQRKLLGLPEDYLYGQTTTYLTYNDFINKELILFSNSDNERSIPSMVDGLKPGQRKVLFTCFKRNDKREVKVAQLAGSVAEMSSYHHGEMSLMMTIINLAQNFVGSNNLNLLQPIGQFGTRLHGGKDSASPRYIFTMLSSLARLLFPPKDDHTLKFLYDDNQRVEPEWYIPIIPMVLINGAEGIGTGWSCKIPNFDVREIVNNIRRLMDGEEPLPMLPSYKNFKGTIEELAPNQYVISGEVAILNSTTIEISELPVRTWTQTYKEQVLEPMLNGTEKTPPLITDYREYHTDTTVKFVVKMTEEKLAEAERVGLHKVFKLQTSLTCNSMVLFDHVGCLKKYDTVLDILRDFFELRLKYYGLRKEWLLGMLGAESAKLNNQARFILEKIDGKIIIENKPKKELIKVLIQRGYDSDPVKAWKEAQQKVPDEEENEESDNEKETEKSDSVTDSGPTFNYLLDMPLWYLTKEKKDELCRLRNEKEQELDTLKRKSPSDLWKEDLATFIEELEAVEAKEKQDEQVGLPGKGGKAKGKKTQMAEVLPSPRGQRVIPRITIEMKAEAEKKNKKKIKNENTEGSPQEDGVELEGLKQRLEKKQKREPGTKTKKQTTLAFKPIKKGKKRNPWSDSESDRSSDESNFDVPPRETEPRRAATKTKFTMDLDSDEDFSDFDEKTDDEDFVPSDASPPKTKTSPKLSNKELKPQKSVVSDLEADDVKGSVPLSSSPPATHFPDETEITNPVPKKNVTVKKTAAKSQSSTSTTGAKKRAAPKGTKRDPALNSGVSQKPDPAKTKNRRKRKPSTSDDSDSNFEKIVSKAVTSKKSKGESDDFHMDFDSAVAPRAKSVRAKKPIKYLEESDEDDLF

Consider `O=C1c2ccccc2-c2nc(-c3cccc(O)c3)cc(-c3ccc(O)cc3)c21`, for which the IC50 with HeLa is > 50 µM; in the assay on HCT-15, 9.51 µM; with T47D it was 1.54 µM. In addition, the inhibition in assay [1] is 35.4%; in assay [2], 42.6%; with Calf thymus DNA it was “Dose-dependent effect”; in assay [4], 100%; in assay [5], 93.7%. Besides, the figures for the fold change (FC) in assay [3] and in [6] were 1.88 to 1.89 and 1.33 to 1.42, respectively.
